Measured values published in ChEMBL document CHEMBL1136026, “4,4'-Benzophenone-O,O'-disulfamate: a potent inhibitor of steroid sulfatase” (Bioorg Med Chem Lett, 2002).

What follows are compounds tested against T1, Steryl-sulfatase (Homo sapiens, UniProt P08842) (assay: Inhibition of human steroid sulfatase compared to EMATE).
T1 sequence (P08842 whole entry): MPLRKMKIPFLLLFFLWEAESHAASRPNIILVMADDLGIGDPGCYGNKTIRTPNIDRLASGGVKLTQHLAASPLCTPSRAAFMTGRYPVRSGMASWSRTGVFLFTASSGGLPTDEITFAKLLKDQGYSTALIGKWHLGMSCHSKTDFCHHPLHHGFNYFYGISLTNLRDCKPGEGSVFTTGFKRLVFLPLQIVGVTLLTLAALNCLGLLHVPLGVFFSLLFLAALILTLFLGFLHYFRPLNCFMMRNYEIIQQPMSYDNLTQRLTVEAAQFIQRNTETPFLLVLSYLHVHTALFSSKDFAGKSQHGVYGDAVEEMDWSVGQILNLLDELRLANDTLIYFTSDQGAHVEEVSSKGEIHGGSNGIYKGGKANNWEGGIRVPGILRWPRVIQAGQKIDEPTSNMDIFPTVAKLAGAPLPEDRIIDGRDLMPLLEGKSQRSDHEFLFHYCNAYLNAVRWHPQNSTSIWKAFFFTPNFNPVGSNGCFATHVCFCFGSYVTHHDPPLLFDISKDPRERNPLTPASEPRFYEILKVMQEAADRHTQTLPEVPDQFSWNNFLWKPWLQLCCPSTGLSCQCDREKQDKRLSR

Compared with `NS(=O)(=O)Oc1cccc(C(=O)c2cccc(OS(N)(=O)=O)c2)c1`, `NS(=O)(=O)Oc1ccc(C(=O)c2cccc(OS(N)(=O)=O)c2)cc1` is 4.1-fold lower in IC50: 3.2 µM for the first, 0.78 µM for the second.

`COc1ccccc1C(=O)c1ccc(OS(N)(=O)=O)cc1` and `NS(=O)(=O)Oc1ccc(C(=O)c2ccccc2O)cc1` are within 1.5-fold of each other in IC50: 4.8 µM for the first, 4.6 µM for the second.

`COc1ccc(C(=O)c2cccc(OS(N)(=O)=O)c2)cc1` and `COc1cccc(C(=O)c2ccc(OS(N)(=O)=O)cc2)c1` are within 1.5-fold of each other in IC50: 6.9 µM for the first, 5.2 µM for the second.

First: C[C@]12CC[C@@H]3c4ccc(OS(N)(=O)=O)cc4CC[C@H]3[C@@H]1CCC2=O [EMATE]
Second: NS(=O)(=O)Oc1cccc(C(=O)c2ccc(O)cc2)c1
The IC50 of the first is 89-fold lower: 0.056 µM for the first, 5 µM for the second.

`NS(=O)(=O)Oc1cccc(C(=O)c2ccccc2)c1` and `NS(=O)(=O)Oc1ccc(C(=O)c2ccccc2)cc1` are within 1.5-fold of each other in IC50: 5.7 µM for the first, 5.1 µM for the second.

`NS(=O)(=O)Oc1cccc(C(=O)c2cccc(O)c2)c1` and `COc1cccc(C(=O)c2cccc(OS(N)(=O)=O)c2)c1` are within 1.5-fold of each other in IC50: 6.9 µM for the first, 7.1 µM for the second.

For `NS(=O)(=O)Oc1ccc(C(=O)c2ccc(OS(N)(=O)=O)cc2)cc1`, the IC50 was 0.19 µM.
